Laboratory results taken from US20250333397A1 (REMIX THERAPEUTICS INC., priority 2021, published 2025).
Like-named read-outs stand apart in the source and are kept apart here.

What was measured:
Assay type in all cases: cell-based, human
[1] = system: SMN2 mRNA; assay: RT-qPCR splicing assay panel, SMN2 canonical junction (CJ) mRNA
How it was run: (§1)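 A673 or K562 cells were treated 24 h at 37 °C with an 11-point 3-fold compound dilution series, top dose 10 uM final, DMSO ≤0.25%. Lysates went to one-step RT-qPCR for canonical (CJ) and alternative-exon (AJ) junctions; ΔCt vs GAPDH, GUSB or PPIA, normalized to DMSO, as 2^(-ΔΔCt).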

[2] = system: HTT mRNA; assay: RT-qPCR splicing assay, HTT canonical (CJ) and alternative (AJ) junction mRNA; conditions: for AC50: read-out: HTT AJ (AC50, increase in AJ mRNA)
How it was run: as §1

[3] = system: MYB mRNA; assay: RT-qPCR splicing assay, MYB canonical (CJ) and alternative (AJ) junction mRNA; conditions: for AC50: read-out: MYB AJ (AC50, increase in AJ mRNA)
How it was run: as §1

[4] = system: Target C mRNA; assay: RT-qPCR splicing assay panel, Target C canonical junction (CJ) mRNA
How it was run: as §1

[5] = Homo sapiens, canonical junction (CJ) mRNA, RT-qPCR panel, Table 4A, read-out: SMN2, decrease in CJ mRNA levels, IC50
[6] = Homo sapiens, 24 h, Table 3A, A673 or K562 cells, 24 h treatment
[7] = Homo sapiens, 24 h, Table 3A, A673 or K562 cells, 24 h treatment, read-out: HTT CJ (IC50, decrease in CJ mRNA)
[8] = Homo sapiens, canonical junction (CJ) mRNA, RT-qPCR panel, Table 4A, read-out: HTT, decrease in CJ mRNA levels, IC50
[9] = Homo sapiens, 24 h, Table 3A, A673 or K562 cells, 24 h treatment, read-out: MYB CJ (IC50, decrease in CJ mRNA)
[10] = Homo sapiens, canonical junction (CJ) mRNA, RT-qPCR panel, Table 4A, read-out: MYB, decrease in CJ mRNA levels, IC50
[11] = Homo sapiens, canonical junction (CJ) mRNA, RT-qPCR panel, Table 4A, read-out: Target C, decrease in CJ mRNA levels, IC50
[12] = Homo sapiens, Table 4B, gene panel, read-out: SMN2 (IC50, decrease in CJ mRNA levels)
[13] = Homo sapiens, 24 h, Table 3B, A673 or K562 cells, 24 h treatment
[14] = Homo sapiens, 24 h, Table 3B, A673 or K562 cells, 24 h treatment, read-out: HTT CJ (IC50, decrease in CJ mRNA)
[15] = Homo sapiens, Table 4B, gene panel, read-out: HTT (IC50, decrease in CJ mRNA levels)
[16] = Homo sapiens, 24 h, Table 3B, A673 or K562 cells, 24 h treatment, read-out: MYB CJ (IC50, decrease in CJ mRNA)
[17] = Homo sapiens, Table 4B, gene panel, read-out: MYB (IC50, decrease in CJ mRNA levels)
[18] = Homo sapiens, Table 4B, gene panel, read-out: Target C (IC50, decrease in CJ mRNA levels)
[19] = Table 3A, A673 or K562 cells, 24 h treatment

| Compound | IC50 [1, 5] [nM] | AC50 [2, 6] [nM] | IC50 [2, 7] [nM] | IC50 [2, 8] [nM] | AC50 [3, 6] [nM] | IC50 [3, 9] [nM] | IC50 [3, 10] [nM] | IC50 [4, 11] [nM] | further results |
| --- | --- | --- | --- | --- | --- | --- | --- | --- | --- |
| COc1cc(-c2ccc(-c3ccc(N4CC[C@@H](NC5CCC5)C4)nn3)c(O)c2)ncn1 [Compound 364, 2-{6-[(3R)-3-(cyclobutylamino)pyrrolidin-1-yl]pyridazin-3-yl}-5-(6-methoxypyrimidin-4-yl)phenol] | < 100 | 100 to 1000 | 100 to 1000 | 100 to 1000 | 1000 to 10000 | 100 to 1000 | 100 to 1000 | 100 to 1000 |  |
| Cc1nc2cc(O)c(-c3ccc(N4CC[C@@H](NC(C)(C)C)C4)nn3)cc2o1 [Compound 812] |  |  |  |  |  |  |  |  | IC50 [1, 12]: < 100 nM; AC50 [2, 13]: < 100 nM; IC50 [2, 14]: < 100 nM; IC50 [2, 15]: < 100 nM; AC50 [3, 13]: 100 to 1000 nM; IC50 [3, 16]: 100 to 1000 nM; IC50 [3, 17]: 100 to 1000 nM; IC50 [4, 18]: 100 to 1000 nM |
| Cc1nc2ccc(-c3ccc(-c4ccc(N5CCC(NC6CCC6)C5)nn4)c(O)c3)cc2o1 (stereo not shown) [Compound 316] | 100 to 1000 | 100 to 1000 | 100 to 1000 | 100 to 1000 | 100 to 1000 | 1000 to 10000 | 1000 to 10000 | 100 to 1000 |  |
| Cc1ncc(-c2cc(O)c(-c3ccc(N4CCC(NC5CCOC5)C4)nn3)cc2F)s1 (stereo not shown) [Compound 350, 4-fluoro-5-(2-methyl-1,3-thiazol-5-yl)-2-{6-[3-(oxolan-3-ylamino)pyrrolidin-1-yl]pyridazin-3-yl}phenol] | < 100 | < 100 | < 100 | < 100 | 100 to 1000 | < 100 | < 100 | < 100 |  |
| COc1cc(-c2ccc(-c3ccc(N4CC[C@@H](NC5(C)CC5)C4)nn3)c(O)c2)cnn1 [Compound 266, 5-(6-methoxypyridazin-4-yl)-2-{6-[(3R)-3-[(1-methylcyclopropyl)amino]pyrrolidin-1-yl]pyridazin-3-yl}phenol] |  |  |  |  |  |  |  |  | IC50 ([1]; canonical junction (CJ) mRNA, RT-qPCR panel, Table 4A, read-out: SMN2, decrease in CJ mRNA levels, IC50): < 100 nM; AC50 [2, 19]: < 100 nM; IC50 ([2]; Table 3A, A673 or K562 cells, 24 h treatment, read-out: HTT CJ (IC50, decrease in CJ mRNA)): < 100 nM; IC50 ([2]; canonical junction (CJ) mRNA, RT-qPCR panel, Table 4A, read-out: HTT, decrease in CJ mRNA levels, IC50): < 100 nM; AC50 [3, 19]: 100 to 1000 nM; IC50 ([3]; Table 3A, A673 or K562 cells, 24 h treatment, read-out: MYB CJ (IC50, decrease in CJ mRNA)): 100 to 1000 nM; IC50 ([3]; canonical junction (CJ) mRNA, RT-qPCR panel, Table 4A, read-out: MYB, decrease in CJ mRNA levels, IC50): 100 to 1000 nM; IC50 ([4]; canonical junction (CJ) mRNA, RT-qPCR panel, Table 4A, read-out: Target C, decrease in CJ mRNA levels, IC50): 100 to 1000 nM |
| Cc1ncc(-c2cc(O)c(-c3ccc(N4CC[C@](C)(NCC5CC5)C4)nn3)cc2F)s1 (single isomer, unassigned) [Compound 400] | < 100 | < 100 | < 100 | < 100 | 100 to 1000 | 100 to 1000 | 100 to 1000 | < 100 |  |
| COc1cc(-c2cc(O)c(-c3cnc(N4CC[C@H](NC5CCC5)C4)nn3)cc2F)cnn1 [Compound 321, 2-{3-[(3S)-3-(cyclobutylamino)pyrrolidin-1-yl]-1,2,4-triazin-6-yl}-4-fluoro-5-(6-methoxypyridazin-4-yl)phenol] | 100 to 1000 | 100 to 1000 | 100 to 1000 | 100 to 1000 | 1000 to 10000 | 1000 to 10000 | 1000 to 10000 | 100 to 1000 |  |
| CC(C)(C)NC1CCN(c2ccc(-c3cc4oc(CC#N)nc4cc3O)nn2)C1 (stereo not shown) [Compound 820] |  |  |  |  |  |  |  |  | IC50 [1, 12]: < 100 nM; AC50 [2, 13]: 100 to 1000 nM; IC50 [2, 14]: 100 to 1000 nM; IC50 [2, 15]: 100 to 1000 nM; AC50 [3, 13]: 100 to 1000 nM; IC50 [3, 16]: 1000 to 10000 nM; IC50 [3, 17]: 1000 to 10000 nM; IC50 [4, 18]: 1000 to 10000 nM |
| CC1(C)CC(Oc2ccc(-c3cc(F)c(-c4cn[nH]c4)cc3O)nn2)CC(C)(C)N1 [Compound 361] | < 100 | < 100 | < 100 | < 100 | < 100 | 100 to 1000 | 100 to 1000 | < 100 |  |
| COCCc1cc(-c2ccc(-c3ccc(N4CCC(NC5CCC5)C4)nn3)c(O)c2)cnn1 (stereo not shown) [Compound 430] | > 10000 | > 10000 | > 10000 | > 10000 | > 10000 | > 10000 | > 10000 | > 10000 |  |
| Oc1cc(-c2cn[nH]c2)ccc1-c1ccc(N2CCN[C@@H](C3CC3)C2)nn1 [Compound 263] | < 100 | < 100 | < 100 | < 100 | 100 to 1000 | 100 to 1000 | 100 to 1000 | 100 to 1000 |  |
| COc1nc(-c2ccc(N3CCC(NC4CCC4)C3)nn2)ccc1-c1cnc(C)s1 (stereo not shown) [Compound 374] | < 100 | 100 to 1000 | 100 to 1000 | 100 to 1000 | 1000 to 10000 | 100 to 1000 | 100 to 1000 | 100 to 1000 |  |
| Oc1cc(-c2cc(OC(F)(F)F)ncn2)ccc1-c1ccc(N2CCC(NCC3CC3)C2)nn1 (stereo not shown) [Compound 455] | > 10000 |  |  | > 10000 |  |  | > 10000 | > 10000 |  |
| CC(C)(C)N[C@@H]1CCN(c2ccc(-c3ccc(-c4cn[nH]c4)cc3O)nn2)C1 [Compound 262] | < 100 | < 100 | < 100 | < 100 | < 100 | < 100 | < 100 | < 100 |  |
| Oc1cc(-c2cnn3c2CCC3)ccc1-c1ccc(N2CCC(NC3CCC3)C2)nn1 (stereo not shown) [Compound 362] | 100 to 1000 | 1000 to 10000 | 100 to 1000 | 100 to 1000 | 100 to 1000 | 1000 to 10000 | 1000 to 10000 | 100 to 1000 |  |
| Cc1nc2c(F)c(O)c(-c3ccc(N4CC[C@H](NC(C)(C)C)C4)nn3)cc2o1 [Compound 843] |  |  |  |  |  |  |  |  | IC50 [1, 12]: > 10000 nM; AC50 [2, 13]: > 10000 nM; IC50 [2, 14]: > 10000 nM; IC50 [2, 15]: > 10000 nM; AC50 [3, 13]: > 10000 nM; IC50 [3, 16]: > 10000 nM; IC50 [3, 17]: > 10000 nM; IC50 [4, 18]: > 10000 nM |
| Cc1nc(C#N)c(-c2cc(O)c(-c3ccc(N4CC[C@H](NC5CCC5)C4)nn3)cc2F)s1 [Compound 429] | 100 to 1000 | 100 to 1000 | 100 to 1000 | 100 to 1000 | 1000 to 10000 | 1000 to 10000 | 1000 to 10000 | 100 to 1000 |  |
| COc1cc(-c2ccc(-c3ccc(N4CC[C@H](NC5(C)CCC5)C4)nn3)c(O)c2)ncn1 [Compound 384, 5-(6-methoxypyrimidin-4-yl)-2-{6-[(3S)-3-[(1-methylcyclobutyl)amino]pyrrolidin-1-yl]pyridazin-3-yl}phenol] | < 100 | < 100 | < 100 | < 100 | 100 to 1000 | 100 to 1000 | 100 to 1000 | 100 to 1000 |  |
| CN(C1CCC1)[C@@H]1CCN(c2ccc(-c3cc(F)c(-c4cn[nH]c4)cc3O)nn2)C1 [Compound 314, 2-{6-[(3R)-3-[cyclobutyl(methyl)amino]pyrrolidin-1-yl]pyridazin-3-yl}-4-fluoro-5-(1H-pyrazol-4-yl)phenol] | < 100 | 100 to 1000 | < 100 | < 100 | 100 to 1000 | 1000 to 10000 | 1000 to 10000 | 100 to 1000 |  |
| Cc1ncc(-c2cc(O)c(-c3ccc(N4CC[C@H](CNC5CCC5)C4)nn3)cc2F)s1 [Compound 454] | < 100 |  |  | < 100 |  |  | 1000 to 10000 | 100 to 1000 |  |
| COc1cc(-c2ccc(-c3ccc(N4CCC(NCC5CC5)C4)nn3)c(O)c2)nc(C)n1 (stereo not shown) [Compound 371] | 1000 to 10000 | 1000 to 10000 | 1000 to 10000 | 1000 to 10000 | > 10000 | > 10000 | > 10000 | > 10000 |  |
